“Also recorded” adds a separate entry of the source.
Experiments:
Assay type in all cases: in vivo
NZBWF1 mice [1] = test: Spleen weight at 42 weeks
Procedure: To determine the effects of compound 148 on inflammatory infiltrate in the spleen, spleens were weighed at 42 weeks. […] Splenocyte suspensions were then prepared. RBCs were lysed and splenocytes were counted.
To determine the effects of compound 5 on inflammatory infiltrate in the spleen, spleens were weighed at 42 weeks. […] The 3 mg/kg dose of compound 5 trended lower indicating fewer inflammatory infiltrates in this organ. Splenocyte suspensions were prepared for all three doses. RBCs were lysed and splenocytes were counted.

NZBWF1 mice [2] = test: Proteinuria scores (urine dip sticks) in NZBWF1 SLE mouse model; details: for Proteinuria scores relative to vehicle: 3.0 mg/kg PO QD; for Proteinuria scores compared to vehicle: 0.3, 1.0 and 3.0 mg/kg PO QD
Excerpt: Six groups of NZBWF1 mice (Jackson Laboratories, stock #100008) were used in the study and were acclimated to the research facility for 7 weeks prior to the start of the study. Weekly measurements of proteinuria (excess serum proteins present in the urine) and body weight began at 20 weeks of age. At 23 weeks of age, the mice were assigned to groups in a balanced manner in order to achieve average body weight and average proteinuria measurements across the groups. One “naive” group consisting of 10 mice was euthanized at the start of treatment and used as a source of tissue for analysis. Treatment began at 23 weeks of age.
The three groups dosed with compound 148 received 0.3, 1.0, and 3.0 mg/kg PO QD, respectively (20 mice per dosage). Surviving animals were sacrificed at 42 weeks. […] Disease development was evaluated as disclosed in the following examples.
High levels of proteinuria are a strong indicator of SLE. […] Proteinuria was expressed as a score from 0 to 4 (0=no protein; 1=traces of protein (<30 mg/dL); 2=30-100 mg/dL; 3=100-500 mg/dL; 4=>500 mg/dL).
As in Example 3, proteinuria was measured weekly beginning at 20 weeks using urine dip sticks (Roche Diagnostics Chemstrip 2GP, cat. no. 11895397160, per manufacturer's protocol). Proteinuria was expressed as a score from 0 to 4 (0=no protein; 1=traces of protein (<30 mg/dL); 2=30-100 mg/dL; 3=100-500 mg/dL; 4=>500 mg/dL). […] (In this and the following experiments, the number of mice per group was approximately 20, and statistics were determined by one-way ANOVA with Dunnett's comparison.)

NZBWF1 mice [3] = test: Kidney lesion histology scoring (glomerular, tubular and interstitial lesions); details: for Tubular and interstitial lesions: 0.3, 1.0, 3.0 mg/kg PO QD
Excerpt: Kidney lesions are another indicator of SLE progression. Kidney slides from test mice were stained with H&E and PAS, to evaluate interstitial infiltrates, tubular atrophy, and interstitial fibrosis (collectively, “tubular and interstitial lesions”), mesangial expansion, endocapillary and extracapillary proliferation, glomerular deposits, (collectively, “glomerular lesions”). Each lesion subtype was scored using a 4 point scale: 0=not present, 1=mild, 2=moderate and 3=severe. Average scores were calculated by multiplying the incidence of each grade by the value of the grade for each of the seven lesions and then adding the scores for the group. Thus, an incidence of 3 animals for grade 3 of a lesion equals a score of 9. The scores were then divided by the number of animals scored in the group.
All slides were scored blind by assigning a random number to each animal and then affixing a temporary label with the random number to the slides. Scores were recorded using Graham StarTox software, version 3.1.0. The StarTox software has a setting that limits the screen display to the random number only, without group or animal number information for use while reading the slides.
(§1) As in Example 5, left kidneys were weighed (FIG. 43) following termination at 42 weeks.

anti-dsDNA antibodies = test: Serum anti-dsDNA antibody titers by ELISA; details: NZBWF1 mice
Procedure: Serum anti-dsDNA antibody titers are used as an indicator of SLE state (see, e.g., Kavanaugh et al., “Guidelines for Clinical Use of the Antinuclear Antibody Test and Tests for Specific Autoantibodies to Nuclear Antigens”, Archives of Pathology & Laboratory Medicine, 124:1, 71-81 (2000)) in most (although not all) patient populations, (see, Isenberg et al., Rheumatology 46:1052-1056, 2007). Titers were measured at 23, 31, 36.5, and 42 weeks. ELISA was performed using an anti-dsDNA ELISA kit (Shibayagi Co., Ltd., cat. no. RSHAKRDD061) following manufacturer's protocol. Results were expressed as optical density (OD) and as arbitrary units per mL. The ELISA standard curve was generated from a pool of sera from mice used a previous study with a known high concentration of anti-dsDNA antibodies. The highest concentration used in the standard curve was 1:100 of that pooled sera. All test samples were diluted 1000-fold for testing. Data was analyzed using http://www.elisaanalysis.com.
As in Example 8, serum anti-dsDNA antibody titers were measured at 22, 30, 36, and 42 weeks. ELISA was performed using an anti-dsDNA ELISA kit.

NZBWF1 mice [4] = test: Serum blood urea nitrogen (BUN) at termination
Procedure: Lymphocyte counts were measured from whole blood taken at 23, 31, and 36.5 weeks using flow cytometry. Cells were gated for CD4+ T cells, CD8+ T cells, and CD19+ B cells. […] Serum blood urea nitrogen (BUN) was also measured at termination to assess kidney function.
As in Example 4, serum blood urea nitrogen (BUN) was measured at termination to assess kidney function.

NZBWF1 mice [5] = test: Kidney weight at termination (42 weeks)
Excerpt: In SLE, inflammatory infiltrates known as Tertiary Lymphatic Tissue (TLT) accumulate in the kidney and spleen, among other tissues. As an indirect measure of disease progression, right and left kidneys were weighed (FIGS. 4A-4B) following termination at 42 weeks.
as §1

Structure (SMILES): CC(C)Oc1ccc(-c2nc(-c3cccc4c3CC[C@@H]4NCCO)no2)cc1C#N [compound 5, (S)-5-(3-(1-(2-hydroxyethylamino)-2,3-dihydro-1H-inden-4-yl)-1,2,4-oxadiazol-5-yl)-2-isopropoxy benzonitrile]
- Spleen weight relative to vehicle (NZBWF1 mice [1]; 3 mg/kg PO QD): trended lower
- Spleen weight relative to vehicle (NZBWF1 mice [1]; any dose 0.3, 1.0, 3.0 mg/kg PO QD): lower, but not significant relative to vehicle
- Proteinuria scores relative to vehicle (NZBWF1 mice [2]; weeks 22-42): significant improvement relative to vehicle
- Proteinuria scores compared to vehicle (NZBWF1 mice [2]; weeks 22-42): lower proteinuria scores in a dose-dependent fashion
- Glomerular lesion score (NZBWF1 mice [3]; 0.3 mg/kg PO QD (compound 5 study)): glomerular lesion score less than to that of the vehicle control, but not significant
- Severity of glomerular lesions (NZBWF1 mice [3]; 1.0 mg/kg and 3.0 mg/kg PO QD (compound 5 study)): dose-independent decrease in the severity of glomerular lesions
- Tubular and interstitial lesions compared to cyclophosphamide (NZBWF1 mice [3]; 3.0 mg/kg PO QD (compound 5 study)): not statistically different from treatment with cyclophosphamide
- Tubular and interstitial lesions (NZBWF1 mice [3]; significant at 1.0 and 3.0 mg/kg (compound 5 study)): dose-dependent decrease in tubular and interstitial lesions
- Serum anti-dsDNA antibody titers (anti-dsDNA antibodies; 3 mg/kg PO QD, week 42, less than cyclophosphamide): decreased antibody titers at week 42
- Serum BUN at termination vs vehicle (NZBWF1 mice [4]; all doses 0.3, 1.0, 3.0 mg/kg PO QD): significant reduction in serum BUN
- Left kidney weight relative to vehicle (NZBWF1 mice [5]; 1.0 and 3.0 mg/kg PO QD): significantly reduced kidney weight relative to vehicle

Structure (SMILES): CC(C)Oc1ccc(-c2nc(-c3cccc4c3CC[C@@H]4N)no2)cc1C#N [compound 148, (S)-5-(3-(1-amino-2,3-dihydro-1H-inden-4-yl)-1,2,4-oxadiazol-5-yl)-2-isopropoxy-benzonitrile]
- Spleen weight relative to vehicle (NZBWF1 mice [1]; all groups 0.3, 1.0, 3.0 mg/kg PO QD): significantly lower
- Proteinuria scores relative to vehicle (NZBWF1 mice [2]; weeks 23-42, p<0.05, 3 mg/kg): significant improvement relative to vehicle; also recorded: efficacy similar to cyclophosphamide
- Proteinuria scores compared to vehicle (NZBWF1 mice [2]; weeks 23-42): lower proteinuria scores in a dose-dependent fashion
- Glomerular lesion score (NZBWF1 mice [3]; 0.3 mg/kg PO QD (compound 148 study)): glomerular lesion score similar to that of the vehicle control
- Severity of glomerular lesions (NZBWF1 mice [3]; 1.0 mg/kg and 3.0 mg/kg PO QD (compound 148 study)): dose-independent decrease in the severity of glomerular lesions
- Tubular and interstitial lesions (NZBWF1 mice [3]; p<0.05 (compound 148 study)): dose-dependent decrease in tubular and interstitial lesions; also recorded: not statistically different from treatment with cyclophosphamide
- Combined kidney lesion score (glomerular plus tubular and interstitial) vs vehicle (NZBWF1 mice [3]; all three treatment groups 0.3, 1.0, 3.0 mg/kg PO QD): dose-related decrease in combined kidney lesion score
- Serum anti-dsDNA antibody titers (anti-dsDNA antibodies; all three dosages 0.3, 1.0, 3.0 mg/kg PO QD, ELISA optical density): decreased antibody titers at week 29; also recorded: decrease was not sustained over the course of the study
- Serum BUN at termination vs vehicle (NZBWF1 mice [4]; 3 mg/kg PO QD, p<0.05): significant reduction in serum BUN
- Kidney weight relative to vehicle (NZBWF1 mice [5]; 3.0 mg/kg PO QD, p<0.05): significantly reduced kidney weight relative to vehicle

— patent US11278526B2, “Compounds and methods for treating lupus” (RECEPTOS LLC, priority 2016, dated 2022)
